Assay results from US7626031B2, “Substituted 3-(diarylmethylene)indolin-2-ones and methods of their use” (Symphony Evolution, Inc., priority 2002, dated 2009).

Legend:
FGFR1 = FGFR1 (Homo sapiens, UniProt P11362); assay: Kinase assay, FGFR1 (33P-ATP incorporation or luciferase-coupled ATP consumption); format: biochemical
In short: (§1)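 Two formats used: luciferase/luciferin chemiluminescence of ATP consumed with pEY, or radiometric 33P transfer to plate-bound MBP or pEY read by scintillation.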

IRK = IRK (Homo sapiens, UniProt P06213); assay: Kinase assay, IRK; format: biochemical
Procedure: (§2) Kinase activity and compound inhibition are investigated using one or more assay formats. The ATP concentrations for each assay are selected to be close to the Michaelis-Menten constant (KM) for each individual kinase. Dose-response experiments are performed at 10 different inhibitor concentrations in a 384-well plate format. […] Exemplary kinase assays are described below. KDR Assay

EphA2 = EphA2 (Homo sapiens, UniProt P29317); assay: Kinase assay, EphA2 (33P-ATP incorporation or luciferase-coupled ATP consumption); format: biochemical
Sequence of EphA2 (P29317 24-976, species assumed): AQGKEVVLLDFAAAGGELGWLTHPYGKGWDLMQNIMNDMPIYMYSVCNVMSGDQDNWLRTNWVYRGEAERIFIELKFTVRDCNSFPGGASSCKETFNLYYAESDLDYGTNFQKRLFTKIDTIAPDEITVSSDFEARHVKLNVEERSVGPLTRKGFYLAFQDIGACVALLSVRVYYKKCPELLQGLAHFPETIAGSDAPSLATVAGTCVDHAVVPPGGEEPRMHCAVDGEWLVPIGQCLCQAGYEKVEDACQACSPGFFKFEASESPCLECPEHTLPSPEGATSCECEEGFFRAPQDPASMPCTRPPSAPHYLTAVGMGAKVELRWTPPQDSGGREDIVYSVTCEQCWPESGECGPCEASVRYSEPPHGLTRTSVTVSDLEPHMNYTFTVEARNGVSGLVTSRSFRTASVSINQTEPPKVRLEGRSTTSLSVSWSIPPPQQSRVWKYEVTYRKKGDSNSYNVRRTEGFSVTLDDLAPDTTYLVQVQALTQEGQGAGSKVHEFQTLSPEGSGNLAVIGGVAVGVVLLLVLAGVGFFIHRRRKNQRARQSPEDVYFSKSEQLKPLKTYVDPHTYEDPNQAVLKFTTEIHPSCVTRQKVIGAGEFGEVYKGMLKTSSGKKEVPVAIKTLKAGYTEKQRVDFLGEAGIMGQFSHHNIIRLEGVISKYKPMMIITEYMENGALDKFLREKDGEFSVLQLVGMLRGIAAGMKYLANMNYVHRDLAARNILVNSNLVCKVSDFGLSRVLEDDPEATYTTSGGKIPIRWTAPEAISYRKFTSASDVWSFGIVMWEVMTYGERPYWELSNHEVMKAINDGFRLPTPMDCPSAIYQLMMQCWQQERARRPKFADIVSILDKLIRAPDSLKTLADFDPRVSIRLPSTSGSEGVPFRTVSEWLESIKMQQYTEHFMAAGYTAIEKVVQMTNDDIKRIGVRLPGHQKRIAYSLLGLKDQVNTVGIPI
In short: as §1

Flt-1 = Flt-1 (Homo sapiens, UniProt P17948); assay: Kinase assay, Flt-1 (33P-ATP incorporation or luciferase-coupled ATP consumption); format: biochemical; details: read-out: Flt1 IC50
Procedure: Kinase assays were performed by measurement of incorporation of γ-^33P ATP into immobilized myelin basic protein (MBP). […] Plates were washed 3× with 100 μl TBS. […] Compound dilutions were performed in DMSO and added to assay wells to a final DMSO concentration of 1%. Each data point was measured in duplicate, and at least two duplicate assays were performed for each individual compound determination. Enzyme was added to final concentrations of 10 nM or 20 nM, for example. A mixture of unlabeled ATP and γ-^33P ATP was added to start the reaction (2×10^6 cpm of γ-^33P ATP per well (3000 Ci/mmole) and either 10 μM or 30 μM unlabeled ATP, typically. The reactions were carried out for 1 hour at room temperature with shaking. Plates were washed 7× with TBS, followed by the addition of 50 μl/well scintillation fluid (Wallac). Plates were read using a Wallac Trilux counter. This is only one format of such assays, various other formats are possible, as known to one of ordinary skill in the art.
Tyrosine kinase activity is determined by 1) measurement of kinase-dependent ATP consumption by in the presence of a generic substrate such as, polyglutamic acid, tyrosine, 4:1 (pEY), by luciferase/luciferin-mediated chemiluminescence or; 2) incorporation of radioactive phosphate derived from ^33P-ATP into a generic substrate which has been adsorbed onto the well surface of polystyrene microtiter plates. Phosphorylated substrate products are quantified by scintillation spectrometry.
as §2

[1] = biological target: T1, KDR (baculovirus expressed human KDR kinase domain D807-V1356) (Homo sapiens, UniProt P35968); assay: biochemical
T1 construct: human KDR kinase domain D807-V1356; host or cells: baculovirus expression system
T1 sequence (P35968 807-1356): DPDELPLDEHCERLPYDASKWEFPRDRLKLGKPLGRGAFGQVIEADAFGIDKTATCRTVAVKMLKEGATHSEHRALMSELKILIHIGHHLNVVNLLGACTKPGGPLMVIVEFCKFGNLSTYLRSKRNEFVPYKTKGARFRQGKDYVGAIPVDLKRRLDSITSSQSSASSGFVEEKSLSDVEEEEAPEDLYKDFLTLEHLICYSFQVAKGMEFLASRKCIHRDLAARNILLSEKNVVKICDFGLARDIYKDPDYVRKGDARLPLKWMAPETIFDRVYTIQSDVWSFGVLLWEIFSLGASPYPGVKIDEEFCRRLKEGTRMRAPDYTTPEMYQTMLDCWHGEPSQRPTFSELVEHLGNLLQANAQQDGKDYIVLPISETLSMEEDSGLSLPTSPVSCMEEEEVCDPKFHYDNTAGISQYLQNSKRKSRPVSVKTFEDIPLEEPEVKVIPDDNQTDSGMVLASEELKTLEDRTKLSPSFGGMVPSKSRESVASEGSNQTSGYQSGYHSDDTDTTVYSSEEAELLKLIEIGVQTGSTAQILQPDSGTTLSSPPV
In short: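 Baculovirus human KDR kinase domain (D807–V1356) with ATP near its KM; 10-point dose-response, 4 h at ambient temperature. Activity taken as percent ATP remaining, detected by luciferase–luciferin chemiluminescence.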

EGFR = EGFR (Homo sapiens, UniProt P00533); assay: Kinase assay, EGFR (33P-ATP incorporation or luciferase-coupled ATP consumption); format: biochemical
Sequence of EGFR (P00533 25-1210, species assumed): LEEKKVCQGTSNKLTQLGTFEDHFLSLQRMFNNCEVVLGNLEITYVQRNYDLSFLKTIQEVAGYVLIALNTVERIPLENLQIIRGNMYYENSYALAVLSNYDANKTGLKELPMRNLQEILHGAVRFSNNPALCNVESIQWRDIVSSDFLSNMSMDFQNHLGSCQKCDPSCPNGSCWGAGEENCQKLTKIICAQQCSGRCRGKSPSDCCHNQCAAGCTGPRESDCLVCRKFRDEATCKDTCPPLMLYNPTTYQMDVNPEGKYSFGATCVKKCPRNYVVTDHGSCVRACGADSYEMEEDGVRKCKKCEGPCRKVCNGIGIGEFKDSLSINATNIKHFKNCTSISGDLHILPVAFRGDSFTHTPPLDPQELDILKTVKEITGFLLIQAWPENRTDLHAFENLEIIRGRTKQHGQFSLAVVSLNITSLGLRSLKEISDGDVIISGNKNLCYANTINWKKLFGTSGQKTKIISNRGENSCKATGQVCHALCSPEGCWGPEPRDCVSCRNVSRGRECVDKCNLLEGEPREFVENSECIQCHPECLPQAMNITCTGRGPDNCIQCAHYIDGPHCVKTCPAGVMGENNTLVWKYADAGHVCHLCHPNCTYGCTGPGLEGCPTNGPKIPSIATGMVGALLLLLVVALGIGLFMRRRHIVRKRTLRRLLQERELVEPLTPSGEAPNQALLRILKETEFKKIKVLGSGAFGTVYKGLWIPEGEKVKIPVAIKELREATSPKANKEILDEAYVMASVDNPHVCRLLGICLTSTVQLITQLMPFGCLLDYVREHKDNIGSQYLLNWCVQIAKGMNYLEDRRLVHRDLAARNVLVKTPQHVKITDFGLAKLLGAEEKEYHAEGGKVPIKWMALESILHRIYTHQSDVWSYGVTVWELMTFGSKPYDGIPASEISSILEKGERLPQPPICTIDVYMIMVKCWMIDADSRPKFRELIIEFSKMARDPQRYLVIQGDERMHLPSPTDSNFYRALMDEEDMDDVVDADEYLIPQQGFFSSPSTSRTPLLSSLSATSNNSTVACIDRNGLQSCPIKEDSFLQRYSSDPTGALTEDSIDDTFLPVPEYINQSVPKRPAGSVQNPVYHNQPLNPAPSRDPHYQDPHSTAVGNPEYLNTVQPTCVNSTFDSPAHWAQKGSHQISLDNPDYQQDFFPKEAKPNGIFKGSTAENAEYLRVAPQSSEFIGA
In short: as §1

Fyn = Fyn (Homo sapiens, UniProt P06241); assay: Kinase assay, Fyn; format: biochemical
Sequence of Fyn (P06241 whole entry, species assumed): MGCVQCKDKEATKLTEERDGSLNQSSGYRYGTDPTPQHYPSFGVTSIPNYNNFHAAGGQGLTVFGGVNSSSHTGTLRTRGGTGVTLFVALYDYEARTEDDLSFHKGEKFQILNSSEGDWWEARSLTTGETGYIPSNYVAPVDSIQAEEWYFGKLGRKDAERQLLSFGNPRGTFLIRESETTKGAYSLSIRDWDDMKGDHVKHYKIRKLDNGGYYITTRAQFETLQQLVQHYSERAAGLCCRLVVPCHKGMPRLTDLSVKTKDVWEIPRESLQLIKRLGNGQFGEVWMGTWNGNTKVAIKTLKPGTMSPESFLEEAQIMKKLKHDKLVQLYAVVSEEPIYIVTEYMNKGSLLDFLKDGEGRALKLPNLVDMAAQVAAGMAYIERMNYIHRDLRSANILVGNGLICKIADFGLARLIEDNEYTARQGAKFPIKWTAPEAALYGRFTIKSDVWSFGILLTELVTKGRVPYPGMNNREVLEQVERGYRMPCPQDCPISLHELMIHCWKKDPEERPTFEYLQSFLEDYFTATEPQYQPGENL
Procedure: as §2

PDGFR alpha = PDGFR alpha (Homo sapiens, UniProt P16234); assay: Kinase assay, PDGFR alpha (33P-ATP incorporation or luciferase-coupled ATP consumption); format: biochemical; details: read-out: PDGF-R-A IC50
Sequence of PDGFR alpha (P16234 24-1089): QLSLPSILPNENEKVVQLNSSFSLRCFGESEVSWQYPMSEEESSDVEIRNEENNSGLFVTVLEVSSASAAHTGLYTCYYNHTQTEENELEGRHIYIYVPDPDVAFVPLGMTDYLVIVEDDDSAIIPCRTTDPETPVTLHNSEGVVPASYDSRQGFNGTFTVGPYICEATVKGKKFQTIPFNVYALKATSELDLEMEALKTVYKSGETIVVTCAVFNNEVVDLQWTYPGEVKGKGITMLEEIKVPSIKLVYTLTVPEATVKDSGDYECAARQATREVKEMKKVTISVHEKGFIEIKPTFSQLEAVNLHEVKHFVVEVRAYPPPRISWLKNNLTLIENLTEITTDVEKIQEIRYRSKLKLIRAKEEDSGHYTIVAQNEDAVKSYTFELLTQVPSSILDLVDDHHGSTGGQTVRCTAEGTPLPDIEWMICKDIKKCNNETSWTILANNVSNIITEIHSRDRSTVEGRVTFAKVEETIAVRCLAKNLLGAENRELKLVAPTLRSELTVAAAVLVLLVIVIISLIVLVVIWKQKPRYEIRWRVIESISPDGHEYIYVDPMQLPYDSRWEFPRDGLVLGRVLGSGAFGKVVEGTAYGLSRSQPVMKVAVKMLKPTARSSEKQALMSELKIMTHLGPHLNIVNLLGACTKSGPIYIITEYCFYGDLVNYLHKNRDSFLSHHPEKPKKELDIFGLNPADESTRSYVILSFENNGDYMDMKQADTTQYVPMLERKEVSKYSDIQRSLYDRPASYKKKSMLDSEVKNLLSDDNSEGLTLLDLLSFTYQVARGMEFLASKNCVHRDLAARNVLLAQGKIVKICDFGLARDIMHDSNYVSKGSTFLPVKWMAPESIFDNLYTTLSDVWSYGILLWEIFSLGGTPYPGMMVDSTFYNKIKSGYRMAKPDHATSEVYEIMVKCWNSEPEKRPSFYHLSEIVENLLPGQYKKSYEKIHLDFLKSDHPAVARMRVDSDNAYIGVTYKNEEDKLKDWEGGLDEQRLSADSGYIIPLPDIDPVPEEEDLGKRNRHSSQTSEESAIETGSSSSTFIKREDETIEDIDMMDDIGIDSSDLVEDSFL
In short: as §1

Sequence of FGFR1 (P11362 22-822, species assumed): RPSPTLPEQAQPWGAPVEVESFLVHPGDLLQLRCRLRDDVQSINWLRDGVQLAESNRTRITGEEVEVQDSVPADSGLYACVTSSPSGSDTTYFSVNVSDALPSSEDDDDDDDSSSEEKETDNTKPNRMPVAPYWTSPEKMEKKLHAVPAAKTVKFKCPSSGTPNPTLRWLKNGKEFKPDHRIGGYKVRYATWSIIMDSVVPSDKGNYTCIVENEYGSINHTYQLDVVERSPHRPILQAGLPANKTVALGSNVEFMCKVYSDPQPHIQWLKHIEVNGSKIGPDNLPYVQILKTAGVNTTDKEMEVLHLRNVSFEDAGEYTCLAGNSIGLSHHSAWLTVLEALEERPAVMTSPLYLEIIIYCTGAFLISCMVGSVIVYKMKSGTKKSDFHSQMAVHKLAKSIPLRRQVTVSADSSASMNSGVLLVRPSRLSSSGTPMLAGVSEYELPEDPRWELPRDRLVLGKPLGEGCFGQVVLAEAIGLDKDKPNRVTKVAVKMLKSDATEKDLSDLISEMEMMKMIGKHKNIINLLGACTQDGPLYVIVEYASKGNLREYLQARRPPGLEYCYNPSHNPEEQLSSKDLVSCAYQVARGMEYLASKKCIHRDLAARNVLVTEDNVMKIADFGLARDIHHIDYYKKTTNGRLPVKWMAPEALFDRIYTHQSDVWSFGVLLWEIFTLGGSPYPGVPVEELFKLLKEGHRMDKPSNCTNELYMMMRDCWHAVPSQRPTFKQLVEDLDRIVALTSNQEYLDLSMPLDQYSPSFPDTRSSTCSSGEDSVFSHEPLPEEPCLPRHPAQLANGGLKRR

Structure (SMILES)	IC50 (FGFR1) [µM]	IC50 (IRK) [µM]	IC50 (EphA2) [µM]	IC50 (Flt-1) [µM]	IC50 [1] [µM]	IC50 (EGFR) [µM]	IC50 (Fyn) [µM]	IC50 (PDGFR alpha) [µM]
CCN1CCC(Nc2ccc3c(c2)/C(=C(\c2cccc(OC)c2)c2nc4ccccc4[nH]2)C(=O)N3)CC1 [Entry 26, (3Z)-3-{1H-benzimidazol-2-yl [3-(methyloxy)phenyl]methylidene}-5-[(1-ethylpiperidin-4-yl)amino]-1,3-dihydro-2H-indol-2-one]	< 0.05	0.5 to 5	0.5 to 5	< 0.05	< 0.05	0.05 to 0.5	< 0.05	< 0.05
COCCN1CCC(Nc2ccc3c(c2)/C(=C(\c2cccc(Cl)c2)c2nc4ccccc4[nH]2)C(=O)N3)CC1 [Entry 38, (3Z)-3-[1H-benzimidazol-2-yl(3-chlorophenyl)methylidene]-5-({1-[2-(methyloxy)ethyl]piperidin-4-yl}amino)-1,3-dihydro-2H-indol-2-one]	< 0.05	0.5 to 5	0.5 to 5	0.05 to 0.5	< 0.05	0.5 to 5	< 0.05	< 0.05
COCCN1CCC(Nc2ccc3c(c2)/C(=C(\c2cccc(OC)c2)c2nc4ccccc4[nH]2)C(=O)N3)CC1 [Entry 39, (3Z)-3-{1H-benzimidazol-2-yl[3-(methyloxy)phenyl]methylidene}-5-({1-[2-(methyloxy)ethyl]piperidin-4-yl}amino)-1,3-dihydro-2H-indol-2-one]	< 0.05	0.5 to 5	0.5 to 5	0.05 to 0.5	< 0.05	0.5 to 5	< 0.05	< 0.05
COCCN1CCC(Nc2ccc3c(c2)/C(=C(\c2cccc(Cl)c2)c2ncc[nH]2)C(=O)N3)CC1 [Entry 40, (3Z)-3-[(3-chlorophenyl)(1H-imidazol-2-yl)methylidene]-5-({1-[2-(methyloxy)ethyl]piperidin-4-yl}amino)-1,3-dihydro-2H-indol-2-one]	< 0.05	0.5 to 5	0.5 to 5	0.05 to 0.5	< 0.05	0.5 to 5	< 0.05	< 0.05
COCCN1CCC(Nc2ccc3c(c2)/C(=C(\c2cc(F)cc(F)c2)c2nc4ccccc4[nH]2)C(=O)N3)CC1 [Entry 42]	< 0.05	> 5	0.5 to 5	0.05 to 0.5	< 0.05	0.05 to 0.5	< 0.05	< 0.05
CCN1CCC(N(C)c2ccc3c(c2)/C(=C(\c2cccc(Cl)c2)c2nc4ccccc4[nH]2)C(=O)N3)CC1 [Entry 43]	0.05 to 0.5	0.5 to 5	0.5 to 5	0.5 to 5	< 0.05	0.5 to 5	0.05 to 0.5	0.05 to 0.5
CCN1CCC(Oc2ccc3c(c2)/C(=C(\c2cccc(Cl)c2)c2ncc[nH]2)C(=O)N3)CC1 [Entry 44, (3Z)-3-[(3-chlorophenyl)(1H-imidazol-2-yl)methylidene]-5-[(1-ethylpiperidin-4-yl)oxy]-1,3-dihydro-2H-indol-2-one]	0.05 to 0.5	0.5 to 5	0.5 to 5	0.5 to 5	< 0.05	0.5 to 5	0.05 to 0.5	0.05 to 0.5
COCCN1CCC(Nc2ccc3c(c2)/C(=C(\c2cccc(F)c2)c2nc4ccccc4[nH]2)C(=O)N3)CC1 [Entry 46, (3Z)-3-[1H-benzimidazol-2-yl(3-fluorophenyl)methylidene]-5-({1-[2-(methyloxy)ethyl]piperidin-4-yl}amino)-1,3-dihydro-2H-indol-2-one]	0.05 to 0.5	0.5 to 5	0.5 to 5	0.05 to 0.5	< 0.05	0.05 to 0.5	< 0.05	< 0.05

Results, then the compound that gave them:

IC50 (FGFR1) [µM]	IC50 (IRK) [µM]	IC50 (EphA2) [µM]	IC50 (Flt-1) [µM]	IC50 [1] [µM]	IC50 (EGFR) [µM]	IC50 (Fyn) [µM]	IC50 (PDGFR alpha) [µM]	Structure (SMILES)
< 0.05	0.05 to 0.5	0.05 to 0.5	< 0.05	< 0.05	0.05 to 0.5	< 0.05	< 0.05	CCN1CCC(Nc2ccc3c(c2)/C(=C(\c2cccc(Cl)c2)c2nc4ccccc4[nH]2)C(=O)N3)CC1 [Entry 27, (3Z)-3-[1H-benzimidazol-2-yl(3-chlorophenyl)methylidene]-5-[(1-ethylpiperidin-4-yl)amino]-1,3-dihydro-2H-indol-2-one]
–	0.5 to 5	0.5 to 5	0.05 to 0.5	< 0.05	0.5 to 5	< 0.05	< 0.05	CCN1CCC(Oc2ccc3c(c2)/C(=C(\c2cccc(OC)c2)c2nc4ccccc4[nH]2)C(=O)N3)CC1 [Entry 32, (3Z)-3-{1H-benzimidazol-2-yl[3-(methyloxy)phenyl]methylidene}-5-[(1-ethylpiperidin-4-yl)oxy]-1,3-dihydro-2H-indol-2-one]
0.05 to 0.5	0.5 to 5	0.5 to 5	0.05 to 0.5	< 0.05	0.5 to 5	< 0.05	< 0.05	CCN1CCC(Oc2ccc3c(c2)/C(=C(\c2cc(F)cc(F)c2)c2nc4ccccc4[nH]2)C(=O)N3)CC1 [Entry 33, (3Z)-3-[1H-benzimidazol-2-yl(3,5-difluorophenyl)methylidene]-5-[(1-ethylpiperidin-4-yl)oxy]-1,3-dihydro-2H-indol-2-one]
–	0.5 to 5	0.5 to 5	0.5 to 5	< 0.05	0.5 to 5	< 0.05	< 0.05	O=C1Nc2ccc(OC3CCN(Cc4ccccc4)CC3)cc2/C1=C(\c1ccccc1)c1nc2ccccc2[nH]1 [Entry 34, (3Z)-3-[1H-benzimidazol-2-yl(phenyl)methylidene]-5-{(1-(phenylmethyl)piperidin-4-yl]oxy}-1,3-dihydro-2H-indol-2-one]
< 0.05	0.5 to 5	0.5 to 5	0.05 to 0.5	< 0.05	0.5 to 5	< 0.05	< 0.05	CCN1CCC(Oc2ccc3c(c2)/C(=C(\c2cccc(Cl)c2)c2nc4ccccc4[nH]2)C(=O)N3)CC1 [Entry 35, (3Z)-3-[1H-benzimidazol-2-yl(3-chlorophenyl)methylidene]-5-[(1-ethylpiperidin-4-yl)oxy]-1,3-dihydro-2H-indol-2-one]
0.05 to 0.5	0.5 to 5	0.5 to 5	0.5 to 5	< 0.05	0.5 to 5	< 0.05	< 0.05	COCCN1CCC(Oc2ccc3c(c2)/C(=C(\c2cc(F)cc(F)c2)c2nc4ccccc4[nH]2)C(=O)N3)CC1 [Entry 36, (3Z)-3-[1H-benzimidazol-2-yl(3,5-difluorophenyl)methylidene]-5-({1-[2-(methyloxy)ethyl]piperidin-4-yl}oxy)-1,3-dihydro-2H-indol-2-one]
0.05 to 0.5	0.5 to 5	0.5 to 5	0.5 to 5	< 0.05	0.05 to 0.5	< 0.05	< 0.05	COCCN1CCC(Oc2ccc3c(c2)/C(=C(\c2cccc(Cl)c2)c2nc4ccccc4[nH]2)C(=O)N3)CC1 [Entry 37, (3Z)-3-[1H-benzimidazol-2-yl(3-chlorophenyl)methylidene]-5-({1-[2-(methyloxy)ethyl]piperidin-4-yl)oxy)-1,3-dihydro-2H-indol-2-one]
0.05 to 0.5	0.5 to 5	0.5 to 5	< 0.05	< 0.05	0.05 to 0.5	< 0.05	< 0.05	CCN1CCC(Nc2ccc3c(c2)/C(=C(\c2ccc(Cl)cc2)c2nc4ccccc4[nH]2)C(=O)N3)CC1 [Entry 45, (3Z)-3-[1H-benzimidazol-2-yl(4-chlorophenyl)methylidene]-5-[(1-ethylpiperidin-4-yl)amino]-1,3-dihydro-2H-indol-2-one]
